The structures appear in SMILES notation.

For one assay, the system named is TNF. The assay can be described thus: inhibition of endotoxin (LPS) induced TNF production in vivo, serum TNF in anaesthetised rats. The settings on record: rat, 10 mg/kg intravenous 15 minutes prior to LPS 50 μg/kg, infusion maintained 2 hours. Also noted: species or system male CD rats. How it is done: The compound of Example 1 was assessed for its ability to inhibit release of endotoxin induced TNF production in vivo.
Male Male CD rats (Charles River, UK) weighing between 300 g-400 g were anaesthetised with an intra-peritoneal injection of a mixture of 62.5 mg·kg^-1 thiopental and 22.5 mg·kg^-1 sodium pentobarbitone (Thiopental, Sigma Chemical Co., UK; Sodium pentobarbitone (Sagatal), May and Baker., UK). The trachea was exposed and cannulated to allow spontaneous respiration through a patent airway. The left jugular vein was exposed and cannulated for the administration of LPS. The right femoral artery was exposed and cannulated for withdrawal of blood samples.
Blood samples (1 ml) were removed just prior to bolus administration of either LPS (E. coli serotype 0111:b4, Difco Laboratories, USA) or saline (NaCL 0.9% w/v) and at intervals of 1 hour and 2 hours after LPS. Removed blood was replaced with equal amounts of saline.
The peak of TNF release was at the 1 hour timepoint. […] levels were expressed in units/ml where 1 unit is the equivalent of 1 pg of mouse TNFα.
Rat serum TNF levels were measured using a mouse TNFα reference standard. The commercial ELISA kits were from Genzyme.
The compound of example 1 was administered intravenously to aneasthetised rats at a dose of 10 mg·kg^-1, 15 minutes prior to LPS administration. […]

Assay [1] has as its system TNFα release from human monocytic cell line U937. Description: inhibition of PMA-stimulated TNFα release from U937 cells (ELISA). The format is cell-based. The settings on record: U-937, PMA 50 nM, 18 hours, 37° C., read-out: IC50, concentration which inhibits the release of TNFα by 50% relative to control culture. The protocol:
The ability of example compounds of the invention to inhibit the release of TNF was investigated. The assay is based on the ability of phorbol myristate acetate (PMA) to stimulate the release of TNF a from a human monocytic cell line, U937.
U937 cells cultured in RPMI 1640 medium+5% foetal calf serum are centifuged at 1000×g for 5 minutes and then resuspended in medium at 2×10^6 /ml. 1 ml of cell suspension is aliquoted into individual wells of 24-well plates. Test compounds are dissolved in dimethyl sulphoxide (DMSO) at a stock concentration of 100 mM, then diluted to 50× the final required concentration with RPMI 1640 medium. 20 μl of the diluted compounds are added to U937 cells in duplicate wells. TNF a release is stimulated by addition of PMA to the cells at a final concentration of 50 nM. Appropriate control cultures are set up in duplicate. The plates are incubated for 18 hours at 37° C., 5% CO2, then centrifuged at 1000×g for 5 minutes. A specific ELISA for TNFα obtained from British Bio-technology Products Limited, Abingdon, England is used to measure TNFα levels in the culture supernatants
The average concentration of test compound which inhibits the release of TNF a by 50% relative to the control culture was assessed.

The target of the next assay is stromelysin (Homo sapiens, UniProt P08254). The assay can be described thus: stromelysin inhibition, 14C acetylated casein, procedure of Cawston et al. It counts as biochemical. The settings on record: 37°, 16 hours, pH 7.5. How it is done:
The potency of compounds of Examples 1 to 6 to act as inhibitors of stromelysin was determined by the procedure of Cawston et al, (Biochem. J., 195, 159-165, 1981), hereby incorporated by reference, whereby a 1 mM solution of the compound being tested, or a dilution thereof, was incubated at 37° for 16 hours with stromelysin and ^14 C acetylate casein (buffered with 25 mM Hepes, pH 7.5 containing 5 mM CaCl2, 0.05% Brij 35 and 0.02% NaN3). The casein was acetylated ^14 C casein prepared by the method of Cawston et al (ibid).

The next assay addresses T1, collagenase (Homo sapiens, UniProt P03956).
T1 sequence (P03956 100-469): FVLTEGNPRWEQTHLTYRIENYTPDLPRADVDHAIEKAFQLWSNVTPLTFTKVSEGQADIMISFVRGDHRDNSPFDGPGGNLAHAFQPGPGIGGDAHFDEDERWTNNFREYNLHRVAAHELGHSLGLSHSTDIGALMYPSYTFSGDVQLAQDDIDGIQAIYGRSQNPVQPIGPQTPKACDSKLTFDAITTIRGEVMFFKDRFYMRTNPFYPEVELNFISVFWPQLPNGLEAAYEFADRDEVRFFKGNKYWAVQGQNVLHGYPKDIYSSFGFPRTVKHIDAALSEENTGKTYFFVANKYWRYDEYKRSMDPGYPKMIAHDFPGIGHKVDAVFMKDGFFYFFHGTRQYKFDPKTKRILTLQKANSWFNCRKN
Description: collagenase inhibition, 14C collagen, procedure of Cawston and Barrett. The format is biochemical. The settings on record: 37°, 16 hours, pH 7.5. The source says: The collagen was acetylated ^14 C collagen prepared by the method of Cawston and Murphy, (Methods in Enzymology, 80, 711, 1981), hereby incorporated by reference. The samples were centrifuged to sediment undigested collagen, and an aliquot of the radioactive supernatant removed for assay on a scintillation counter as a measure of hydrolysis.

Chain of stromelysin (P08254 100-477): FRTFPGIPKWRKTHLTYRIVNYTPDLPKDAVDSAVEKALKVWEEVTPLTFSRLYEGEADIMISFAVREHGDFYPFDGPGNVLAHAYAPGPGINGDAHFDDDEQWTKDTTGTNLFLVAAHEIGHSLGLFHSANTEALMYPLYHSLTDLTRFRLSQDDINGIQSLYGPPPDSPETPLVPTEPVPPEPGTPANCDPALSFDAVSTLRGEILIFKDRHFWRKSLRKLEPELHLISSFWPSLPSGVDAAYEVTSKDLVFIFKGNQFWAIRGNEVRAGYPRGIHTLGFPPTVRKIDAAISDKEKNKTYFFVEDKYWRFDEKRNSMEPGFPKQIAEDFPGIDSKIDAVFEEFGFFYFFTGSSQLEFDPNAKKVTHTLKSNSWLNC

As for `CNC(=O)[C@H](CCCCNC(C)=O)NC(=O)[C@H](CC(C)C)[C@H](CSc1ccc(O)cc1)C(=O)NO` [Example 1, N^2-[4-(N-Hydroxyamino)-3S-(4-hydroxyphenylthiomethyl)-2R-isobutylsuccinyl]-N^6-acetyl-L-lysine-N^1-methylamide], in the assay on TNF (1 hour after LPS), the “reduction of LPS-induced release of TNF, 1 hour timepoint” value is on record as “more than 50%”. Also, the “reduction of LPS-induced release of TNF, 2 hour timepoint” value in the assay on TNF (2 hours after LPS) is “more than 50%”. Further, the IC50 in assay [1] was under 50000 nM.
For the compound `CNC(=O)[C@H](CCCCNC(=O)OC(C)(C)C)NC(=O)[C@H](CC(C)C)[C@H](CSc1ccc(O)cc1)C(=O)NO` [Example 2, N^2-[4-(N-Hydroxyamino)-3S-(4-hydroxyphenylthiomethyl)-2R-isobutylsuccinyl]-N^6-tert-butyloxycarbonyl-L-lysine-N^1-methylamide], the IC50 against stromelysin was 15 nM; in assay [1], under 50000 nM; at collagenase, 15 nM.
On to `CNC(=O)[C@H](CCCCN(CSc1ccc(O)cc1)C(=O)OC(C)(C)C)NC(=O)[C@H](CC(C)C)[C@H](CSc1ccc(O)cc1)C(=O)NO` [Example 3, N^2-[4-(N-Hydroxyamino)-3S-(4-hydroxyphenylthiomethyl)-2R-isobutylsuccinyl]-N^6-tert-butyloxycarbonyl-N^6-(4-hydroxyphenylthiomethyl)-L-lysine-N^1-methylamide], for which the IC50 is 50 nM against stromelysin, under 50000 nM in assay [1] and 30 nM against collagenase.
With `CNC(=O)[C@H](CCCCNC(=O)OC(C)(C)C)NC(=O)[C@H](CC(C)C)[C@H](CSc1cccs1)C(=O)NO` [Example 4, N^2-[4-(N-Hydroxyamino)-3S-(2-thienythiomethyl)-2R-isobutylsuccinyl]-N^6-tert-butyloxycarbonyl-L-lysine-N^1-methylamide], the IC50 on stromelysin was 20 nM; in assay [1], under 50000 nM.
As to `CNC(=O)[C@@H](NC(=O)[C@H](CC(C)C)[C@H](CSc1ccc(O)cc1)C(=O)NO)[C@@H](C)OC(C)(C)C` [Example 5, N^2-[4-(N-Hydroxyamino)-3S-(4-hydroxyphenylthiomethyl)-2R-isobutylsuccinyl]-O-tert-butyl-L-threonine-N^1-methylamide], the figures for the IC50 at stromelysin and against collagenase were 40 nM and 5 nM, respectively.
As to `CNC(=O)CC[C@H](NC(=O)[C@H](CC(C)C)[C@H](CSc1ccc(O)cc1)C(=O)NO)C(=O)NC` [Example 6, N^2-[4-(N-Hydroxyamino)-3S-(4-hydroxyphenylthiomethyl)-2R-isobutylsuccinyl]-L-glutamine-N^1,N^5-dimethylamide], the values for the IC50 (at stromelysin; in assay [1]; against collagenase) were 70 nM, under 50000 nM and 6 nM, respectively.

Source of the values: patent publication US5821262A, “Hydroxamic acid derivatives as inhibitors of cytokine production” (British Biotech Pharmaceuticals Limited, priority 1993, dated 1998).
